Assay [1] concerns P. inhibens ΔmetE mutant. In words: Lag phase shortening in ΔmetE mutant. It is filed as cell-based, Phaeobacter inhibens. The conditions noted are these: 2 μM DMSP, minimal media. The method, then: (§1) For creation of P. inhibens knockout cells, ˜1,000 bp regions upstream and downstream of the gene of interest were amplified by PCR (Phusion High-Fidelity DNA polymerase, Thermo Scientific), using primers that added homologous regions to gentamycin or kanamycin resistance markers. The fragments were assembled and cloned into the TOPOII vector (Invitrogen) using restriction-free cloning (Peleg Y. & Unger T., 2014), generating a knockout (KO) plasmid. P. inhibens electrocompetent cells (300 μl) were transformed with 10 μg of the constructed KO plasmid by a pulse of 1.8 kV (Bio Rad). Cells were selected on ½YTSS agar plates containing 30 μg/ml gentamycin or 150 μg/ml kanamycin. Successful knockouts in single cell clones were verified by PCR and sanger sequencing.
P. inhibens harbors another methionine synthase encoded by metE (FIGS. 1C and 4; gene 65). To test the possible contribution of this enzyme to lag phase shortening the inventors knocked-out the gene and examined the performance of the mutant strain. […] To further rule out the involvement of MetE in lag phase shortening, the inventors perturbed the function of MetE using an inhibitor of its methyl donor. To produce methionine, MetE utilizes 5-methyl-tetrahydrofolate (THF) as a methyl donor (Pejchal and Ludwig, 2005). THF is central in the process of bacterial nucleotide production (Quinlivan et al., 2000).

In assay [2] the test system is methyl group metabolism pathway genes of P. inhibens. In words: Lag phase transcriptome (dual RNA-sequencing) of DMSP-treated bacteria. It is filed as cell-based, Phaeobacter inhibens. The conditions noted are these: 50 μM DMSP, within the first 15 min and 40 min of the lag phase, vs untreated. The method, then:
The bacterium P. inhibens DSM 17395 was co-cultivated with the alga Emiliania huxleyi CCMP3266 (purchased from Bigelow Laboratory for Ocean Sciences, East Boothbay, ME) to investigate the metabolic response of the bacterium in the presence of algae, compared to bacteria grown as pure culture with 2 mM glucose. The analysis was conducted using a dual RNA-Sequencing method adapted from Avraham et al. 2016. The adapted method was previously described by Sperfeld et al., 2021. […] The resulting gene expression data, together with data from public databases (BioCyc and KEGG), were used to reconstruct the methyl group metabolism in P. inhibens DSM 17395 (FIG. 1C). The same dual RNA-sequencing method was used to identify genes that are differentially expressed during the lag phase of P. inhibens pure cultures treated with 50 μM DMSP, compared to control cultures without added DMSP (FIGS. 10A, and 11A-11B).
To further elucidate the fate of methyl groups, the inventors analyzed the transcriptome of DMSP-treated P. inhibens bacteria during the lag phase, and compared it to untreated control cultures. […] To further establish that DMSP methyl groups are assimilated via the methionine cycle, the inventors measured the methionine synthesis activity in protein crude extracts of stationary bacterial cells, using a biochemical assay followed by LC/MS analysis. […]

Assay [3] has as its system P. inhibens Δbmt mutant. In words: Growth and lag phase shortening in Δbmt mutant. The conditions noted are these: 2 μM DMSP, minimal media with or without 200 μM methionine. It is filed as cell-based, Phaeobacter inhibens. The method, then: as §1
Assay [4] deals with Bacillus subtilis strain 168. In words: Lag phase shortening in B. subtilis. The conditions noted are these: 2 μM compound. Type of assay: cell-based. The protocol:
The bacterial strain Phaeobacter inhibens DSM 17395 was purchased from the German collection of microorganisms and cell cultures (DSMZ, Braunschweig, Germany) and stored at −80° C. with 20% glycerol. Routine cultivation of P. inhibens was conducted at 30° C. in artificial seawater medium (ASW) based on Goyet and Poisson (1989). The ASW medium contained mineral salts (NaCl, 409.41 mM; Na2SO4, 28.22 mM; KCl, 9.08 mM; KBr, 0.82 mM; NaF, 0.07 mM; Na2CO3, 0.20 mM; NaHCO3, 2 mM; MgCl2, 50.66 mM; SrCl2, 0.09 mM), L1 vitamins (thiamine HCl, 100 μg/L; biotin, 0.5 μg/L; vitamin B12, […]), L1 trace elements (Na2EDTA·2H2O, 4.36 mg/L; FeCl3·6H2O, 3.15 mg/L; MnCl2·4H2O, 178.1 μg/L; ZnSO4·7H2O, 23.0 μg/L; CoCl2·6H2O, 11.9 μg/L; CuSO4·5H2O, 2.5 μg/L; Na2MoO4·2H2O, 19.9 μg/L; H2SeO3, 1.29 μg/L; NiSO4·6H2O, 2.63 μg/L; Na3 VO4, 1.84 μg/L; K2CrO4, 1.94 μg/L), and L1 nutrients (NaNO3, 882 μM; NaH2PO4, 36.22 μM). ASW was adjusted to pH 8 using HCl. If not otherwise stated, the medium was further supplemented with a source of carbon (glucose, 1 mM), nitrogen (NH4Cl, 5 mM), and sulfur (Na2SO4, 33 mM), referred to as ASW+CNS. Methylated effector compounds (e.g., donors) were administered at 1 or 2 μM in routine assays, or in higher concentrations as stated. The bacterium Bacillus subtilis strain 168 was cultivated in M9 Medium (Na2HPO4, 6 g/L; KH2PO4, 3 g/L; NaCl, 0.5 g/L; NH4CL, 1 g/L; CaCl2), 100 µM; MgSO4, 1 mM; Thiamine, 5 mg/L; EDTA, 50 mg/L; FcCl3, 4.98 mg/L; ZnCl2, 0.84 mg/L; CuCl2·2H2O, 0.13 mg/L; CoCl2·6H2O, 0.1 mg/L; H3BO3, 0.1 mg/L; MnCl2·4H2O, 0.016 mg/L; pH 7.1) with 20 mM glucose. Other bacterial strains tested for lag phase shortening were isolated from the marine environment (Despotović et al., 2021), and cultivated in ASW+CNS. A 96-well Tecan Infinite M Plex plate reader was used for high-resolution monitoring of bacterial growth dynamics at 30° C. […] The growth of bacteria in co-culture with algae was monitored by counting colony forming units (CFU) on ½ YTSS agar plates. The growth of algae was monitored with a CellStream flow cytometer (Merck, Darmstadt, Germany). […]

In assay [5] the test system is marine bacterium Vibrio sp. In words: Lag phase shortening in Vibrio sp. The conditions noted are these: 2 μM compound. It is filed as cell-based. The method, then: The bacterial strain Phaeobacter inhibens DSM 17395 was purchased from the German collection of microorganisms and cell cultures (DSMZ, Braunschweig, Germany) and stored at −80° C. with 20% glycerol. Routine cultivation of P. inhibens was conducted at 30° C. in artificial seawater medium (ASW) based on Goyet and Poisson (1989). The ASW medium contained mineral salts (NaCl, 409.41 mM; Na2SO4, 28.22 mM; KCl, 9.08 mM; KBr, 0.82 mM; NaF, 0.07 mM; Na2CO3, 0.20 mM; NaHCO3, 2 mM; MgCl2, 50.66 mM; SrCl2, 0.09 mM), L1 vitamins (thiamine HCl, 100 μg/L; biotin, 0.5 μg/L; vitamin B12, […]), L1 trace elements (Na2EDTA·2H2O, 4.36 mg/L; FeCl3·6H2O, 3.15 mg/L; MnCl2·4H2O, 178.1 μg/L; ZnSO4·7H2O, 23.0 μg/L; CoCl2·6H2O, 11.9 μg/L; CuSO4·5H2O, 2.5 μg/L; Na2MoO4·2H2O, 19.9 μg/L; H2SeO3, 1.29 μg/L; NiSO4·6H2O, 2.63 μg/L; Na3 VO4, 1.84 μg/L; K2CrO4, 1.94 μg/L), and L1 nutrients (NaNO3, 882 μM; NaH2PO4, 36.22 μM). ASW was adjusted to pH 8 using HCl. […] A 96-well Tecan Infinite M Plex plate reader was used for high-resolution monitoring of bacterial growth dynamics at 30° C. […] The growth of bacteria in co-culture with algae was monitored by counting colony forming units (CFU) on ½ YTSS agar plates. The growth of algae was monitored with a CellStream flow cytometer (Merck, Darmstadt, Germany). […]

`C[S+](C)CCC(=O)[O-]` [DMSP, dimethylsulfoniopropionate]: the lag phase shortening entry in assay [1] is “exhibited lag phase shortening similar to wild-type bacteria”; in assay [3], “did not induce lag phase shortening”; in assay [4], “induction of the lag phase shortening”; in assay [5], “induction of the lag phase shortening”. Besides, the “expression of the methyl group metabolism pathway” value in assay [2] is recorded as “upregulated”.

Values taken from patent US20260015574A1, “METHODS FOR SHORTENING LAG PHASE DURATION IN MICROORGANISMS” (YEDA RESEARCH AND DEVELOPMENT CO. LTD., priority 2022, published 2026).
